Data as given in PMC9881875 (bioRxiv, 2023).
Residues, ends and D or L forms follow the SMILES beside them.

Legend:
MAGI1 PDZ2 (MAGI1–2) [1] = biological target: T1, MAGI1 PDZ2 (MAGI1–2) (Homo sapiens, UniProt Q96QZ7); assay: Fluorescence polarization competition; format: binding
PTPN3 PDZ (PTPN3) [2] = biological target: T2, PTPN3 PDZ (PTPN3) (Homo sapiens, UniProt P26045); assay: Fluorescence polarization competition; format: binding
T2 sequence (P26045 505-597): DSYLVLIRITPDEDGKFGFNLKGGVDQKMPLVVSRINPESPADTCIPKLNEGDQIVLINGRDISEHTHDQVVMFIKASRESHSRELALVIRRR

SCRIB PDZ1 (SCRIB-1) [3] = biological target: T3, SCRIB PDZ1 (SCRIB-1) (Homo sapiens, UniProt Q14160); assay: Fluorescence polarization competition, SCRIB-1; format: binding
NHERF1 PDZ1 (N1P1) = biological target: T4, NHERF1 PDZ1 (N1P1) (Homo sapiens, UniProt O14745); assay: Fluorescence polarization competition, N1P1
T4 sequence (O14745 1-139): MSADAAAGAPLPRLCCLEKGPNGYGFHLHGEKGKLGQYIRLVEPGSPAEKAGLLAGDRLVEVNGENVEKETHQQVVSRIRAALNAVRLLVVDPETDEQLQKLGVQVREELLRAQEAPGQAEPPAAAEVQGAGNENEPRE

DLG1 PDZ1 (DLG1–1) [4] = biological target: T5, DLG1 PDZ1 (DLG1–1) (Homo sapiens, UniProt Q12959); assay: Fluorescence polarization competition, DLG1–1; format: binding
NHERF2 PDZ2 (N2P2) = NHERF2 PDZ2 (N2P2) (Homo sapiens, UniProt Q15599); assay: Fluorescence polarization competition, N2P2
SNX27 PDZ (SNX27) = SNX27 PDZ (SNX27) (Rattus norvegicus, UniProt Q8K4V4); assay: Fluorescence polarization competition, SNX27; format: binding
MAGI1 PDZ2 (MAGI1–2) [5] = biological target: T1, MAGI1 PDZ2 (MAGI1–2); assay: Fluorescence polarization direct binding of reporter peptide, MAGI1–2
PTPN3 PDZ (PTPN3) [6] = biological target: T2, PTPN3 PDZ (PTPN3); assay: Fluorescence polarization direct binding of reporter peptide, PTPN3
SCRIB PDZ1 (SCRIB-1) [7] = biological target: T3, SCRIB PDZ1 (SCRIB-1); assay: Fluorescence polarization direct binding of reporter peptide, SCRIB-1
DLG1 PDZ1 (DLG1–1) [8] = biological target: T5, DLG1 PDZ1 (DLG1–1); assay: Fluorescence polarization direct binding of reporter peptide, DLG1–1
TIP-1 PDZ = biological target: T6, TIP-1 PDZ (Homo sapiens, UniProt O14907); assay: Fluorescence polarization competition, TIP-1 PDZ
T6 sequence (O14907 9-120): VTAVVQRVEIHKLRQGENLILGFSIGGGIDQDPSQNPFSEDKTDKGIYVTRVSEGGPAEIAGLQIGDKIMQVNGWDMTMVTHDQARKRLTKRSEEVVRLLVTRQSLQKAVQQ

CAL PDZ = CAL PDZ (Homo sapiens, UniProt Q9HD26); assay: Fluorescence polarization competition, CAL PDZ

Row | SMILES | IC50 (MAGI1 PDZ2 (MAGI1–2) [1]) | IC50 (PTPN3 PDZ (PTPN3) [2]) | Ki (SCRIB PDZ1 (SCRIB-1) [3]) | Ki (NHERF1 PDZ1 (N1P1)) | Ki (DLG1 PDZ1 (DLG1–1) [4]) | Ki (NHERF2 PDZ2 (N2P2)) | Ki (SNX27 PDZ (SNX27)) | Kd (MAGI1 PDZ2 (MAGI1–2) [5]) | Kd (PTPN3 PDZ (PTPN3) [6]) | Kd (SCRIB PDZ1 (SCRIB-1) [7]) | Kd (DLG1 PDZ1 (DLG1–1) [8]) | Ki (TIP-1 PDZ) | Ki (CAL PDZ)
1 | CC(C)C[C@H](NC(=O)[C@H](CCC(N)=O)NC(=O)[C@@H](NC(=O)[C@H](CC(=O)O)NC(=O)[C@H](CCC(N)=O)NC(=O)[C@@H](NC(=O)[C@@H](NC(=O)[C@H](CCCNC(=N)N)NC(=O)[C@H](CO)NC(=O)[C@@H](N)CO)[C@@H](C)O)C(C)C)[C@@H](C)O)C(=O)O [CFTRP1Q] (H-SSRTVQDTQL-OH) | 420 ± 210 µM | 51 ± 14 µM | 150 ± 60 µM | 25 ± 7 µM | 250 ± 150 µM | 3.1 ± 0.5 µM | 0.26 ± 0.05 µM |  |  |  |  |  | 
2 | CC(C)C[C@H](NC(=O)[C@H](CCCNC(=N)N)NC(=O)[C@@H](NC(=O)[C@H](CC(=O)O)NC(=O)[C@H](CCCNC(=N)N)NC(=O)[C@@H](NC(=O)[C@@H](NC(=O)[C@H](CCCNC(=N)N)NC(=O)[C@H](CO)NC(=O)[C@@H](N)CO)[C@@H](C)O)C(C)C)[C@@H](C)O)C(=O)O [CFTRP4R] (H-SSRTVRDTRL-OH) | 460 ± 200 µM | 85 ± 39 µM | 370 ± 170 µM | 6.9 ± 2.7 µM | 510 ± 230 µM | 1.7 ± 0.5 µM | 0.44 ± 0.06 µM |  |  |  |  |  | 
3 | CC(C)C[C@H](NC(=O)[C@H](CCCNC(=N)N)NC(=O)[C@@H](NC(=O)[C@H](CC(=O)O)NC(=O)[C@H](CCC(N)=O)NC(=O)[C@H](CCCNC(=N)N)NC(=O)[C@@H](NC(=O)[C@H](CCCNC(=N)N)NC(=O)[C@H](CO)NC(=O)[C@@H](N)CO)[C@@H](C)O)[C@@H](C)O)C(=O)O [CFTRP5R] (H-SSRTRQDTRL-OH) | 220 ± 50 µM | 120 ± 20 µM | 50 ± 10 µM | 1.8 ± 0.3 µM | 430 ± 200 µM | 0.49 ± 0.38 µM | 7.4 ± 4.5 µM |  |  |  |  |  | 
4 | CC(C)C[C@H](NC(=O)[C@H](CCC(N)=O)NC(=O)[C@@H](NC(=O)[C@H](CCC(=O)O)NC(=O)[C@H](CCCNC(=N)N)NC(=O)[C@H](CCCNC(=N)N)NC(=O)[C@@H](NC(=O)[C@H](CCCNC(=N)N)NC(=O)[C@H](CO)NC(=O)[C@H](CO)NC(=S)Nc1ccc2c(c1)C(=O)OC21c2ccc(O)cc2Oc2cc(O)ccc21)[C@@H](C)O)[C@@H](C)O)C(=O)O [F*-HPV16 E6] |  |  |  |  |  |  |  | 12 ± 4 µM | 2 ± 1 µM | 5.1 ± 1.7 µM | 17 ± 4 µM |  | 
5 | CC(C)C[C@H](NC(=O)[C@H](CCC(N)=O)NC(=O)[C@@H](NC(=O)[C@H](CCC(=O)O)NC(=O)[C@H](CCCNC(=N)N)NC(=O)[C@H](CCCNC(=N)N)NC(=O)[C@@H](NC(=O)[C@H](CCCNC(=N)N)NC(=O)[C@H](CO)NC(=O)[C@@H](N)CO)[C@@H](C)O)[C@@H](C)O)C(=O)O [HPV16 E6] | 3.7 ± 0.1 µM | 10.1 µM | 20 ± 7 µM | 100 ± 50 µM | 22 ± 12 µM | 17 ± 6 µM | 1.5 ± 0.5 µM |  |  |  |  | 11 ± 1 µM | 
6 | CC(C)C[C@H](NC(=O)[C@H](CCCNC(=N)N)NC(=O)[C@@H](NC(=O)[C@H](CCC(=O)O)NC(=O)[C@H](CCCNC(=N)N)NC(=O)[C@H](CCCNC(=N)N)NC(=O)[C@@H](NC(=O)[C@H](CCCNC(=N)N)NC(=O)[C@H](CO)NC(=O)[C@@H](N)CO)[C@@H](C)O)[C@@H](C)O)C(=O)O [HPVP1R] (H-SSRTRRETRL-OH) | 5.2 ± 2.4 µM | 18 ± 1 µM | 13 ± 2 µM | 8.8 ± 3.4 µM | 39 ± 11 µM | 6.9 ± 1.1 µM | 2.1 ± 0.7 µM |  |  |  |  | 22 ± 5 µM | 42 ± 10 µM
7 | CC(C)C[C@H](NC(=O)[C@H](CCC(N)=O)NC(=O)[C@@H](NC(=O)[C@H](CCC(=O)O)NC(=O)[C@H](CCC(N)=O)NC(=O)[C@H](CCCNC(=N)N)NC(=O)[C@@H](NC(=O)[C@H](CCCNC(=N)N)NC(=O)[C@H](CO)NC(=O)[C@@H](N)CO)[C@@H](C)O)[C@@H](C)O)C(=O)O [HPVP4Q] (H-SSRTRQETQL-OH) | 3.8 ± 2.1 µM | 18 ± 5 µM | 13 ± 2 µM | 21 ± 7 µM | 23 ± 6 µM | 5.2 ± 0.6 µM | 0.51 ± 0.22 µM |  |  |  |  | 34 ± 2 µM | 56 ± 6 µM
8 | CC(C)C[C@H](NC(=O)[C@H](CCC(N)=O)NC(=O)[C@@H](NC(=O)[C@H](CCC(=O)O)NC(=O)[C@H](CCCNC(=N)N)NC(=O)[C@@H](NC(=O)[C@@H](NC(=O)[C@H](CCCNC(=N)N)NC(=O)[C@H](CO)NC(=O)[C@@H](N)CO)[C@@H](C)O)C(C)C)[C@@H](C)O)C(=O)O [HPVP5V] (H-SSRTVRETQL-OH) | 4.4 ± 1.1 µM | 3.4 ± 0.3 µM | 4.5 ± 2.8 µM | 67 ± 28 µM | 13 ± 4 µM | 7 ± 3.6 µM | 0.11 ± 0.03 µM |  |  |  |  | 35 ± 4 µM | 190 ± 10 µM
